# Tested on: not listed separately
# Assay: Plasma half-life in 6-8 weeks old broiler chickens
# Type: ADME, organism-based, Gallus gallus
# Conditions: chicken
row,half-life [h],SMILES
1,14.5,Cc1cc(-n2ncc(=O)[nH]c2=O)ccc1S(=O)(=O)c1ccc(Cl)cc1
2,38,O=c1cnn(-c2ccc(Sc3ccc(Cl)cc3)c(Cl)c2)c(=O)[nH]1
3,47,O=c1cnn(-c2cc(Cl)c(Sc3ccc(Cl)cc3)c(Cl)c2)c(=O)[nH]1
4,26,Cc1cc(-n2ncc(=O)[nH]c2=O)cc(Cl)c1S(=O)(=O)c1ccc(Cl)cc1
5,16,Cc1cc(-n2ncc(=O)[nH]c2=O)cc(C)c1Sc1ccc(Cl)cc1 [TIAZURIL]

# Tested on: not listed separately
# Assay: Plasma half-life in 2 weeks-old chickens
# Type: ADME, organism-based, Gallus gallus
# Conditions: chicken
row,half-life [h],SMILES
1,10,Cc1cc(-n2ncc(=O)[nH]c2=O)ccc1S(=O)(=O)c1ccc(Cl)cc1
2,19,O=c1cnn(-c2ccc(S(=O)(=O)c3ccc(Br)cc3)cc2)c(=O)[nH]1

# Tested on: Eimeria tenella
# Assay: Minimum effective concentration in feed to protect chickens against infections caused by Eimeria tenella
# Type: functional
# Conditions: not given
row,SMILES,MEC [p.p.m.]
1,Cc1cc(-n2ncc(=O)[nH]c2=O)cc(C)c1Sc1ccc(I)cc1,15
2,O=c1cnn(-c2ccc(Sc3ccc(Cl)cc3)cc2)c(=O)[nH]1,4
3,O=c1cnn(-c2ccc(Sc3ccc(Br)cc3)c(Cl)c2)c(=O)[nH]1,2
4,CSc1c(Cl)cc(-n2ncc(=O)[nH]c2=O)cc1Cl,30
5,Cc1ccccc1S(=O)(=O)c1ccc(-n2ncc(=O)[nH]c2=O)cc1,>125
6,O=c1cnn(-c2ccc(S(=O)(=O)c3ccc(Cl)cc3)cc2)c(=O)[nH]1,4
7,Cc1cc(-n2ncc(=O)[nH]c2=O)cc(Cl)c1Sc1ccc(Cl)cc1,0.25
8,CCc1cc(-n2ncc(=O)[nH]c2=O)cc(C)c1Sc1ccc(Cl)cc1,60
9,O=c1cnn(-c2ccc(Sc3ccc(Cl)cc3)c([N+](=O)[O-])c2)c(=O)[nH]1,60
10,C[S+]([O-])c1c(Cl)cc(-n2ncc(=O)[nH]c2=O)cc1Cl (stereo not given),>125
11,O=c1cnn(-c2cc(Cl)c(S(=O)(=O)c3ccc(Cl)cc3)c(Cl)c2)c(=O)[nH]1,0.5
12,COc1cc(-n2ncc(=O)[nH]c2=O)ccc1S(=O)(=O)c1ccc(Cl)cc1,>125
13,Cc1cc(-n2ncc(=O)[nH]c2=O)ccc1S(=O)(=O)c1ccc(Cl)cc1,2
14,O=c1cnn(-c2ccc(Sc3ccc(Cl)cc3)c(Cl)c2)c(=O)[nH]1,2
15,O=c1cnn(-c2ccc(S(=O)(=O)c3ccc(Cl)cc3)c(Cl)c2)c(=O)[nH]1,2
16,CS(=O)(=O)c1c(Cl)cc(-n2ncc(=O)[nH]c2=O)cc1Cl,>125
17,O=c1cnn(-c2cc(Cl)c(Sc3ccccc3)c(Cl)c2)c(=O)[nH]1,8
18,Cc1ccc(S(=O)(=O)c2ccc(-n3ncc(=O)[nH]c3=O)cc2)cc1,250
19,O=c1cnn(-c2cc(Cl)c(Sc3ccc(Cl)cc3)c(Cl)c2)c(=O)[nH]1,0.25

row,SMILES,MEC [p.p.m.]
1,O=c1cnn(-c2ccc(S(=O)(=O)c3ccc(Br)cc3)cc2)c(=O)[nH]1,8
2,O=c1cnn(-c2cc(Cl)c(Sc3ccc(S(=O)(=O)N4CCOCC4)cc3)c(Cl)c2)c(=O)[nH]1,>60
3,O=c1cnn(-c2cc(Br)c(Sc3ccc([N+](=O)[O-])cc3)c(Br)c2)c(=O)[nH]1,8
4,CC(c1ccccc1)S(=O)(=O)c1ccc(-n2ncc(=O)[nH]c2=O)cc1 (stereo not given),>125
5,O=c1cnn(-c2ccc(S(=O)(=O)c3ccc([N+](=O)[O-])cc3)cc2)c(=O)[nH]1,>250
6,Cc1cc(-n2ncc(=O)[nH]c2=O)cc(C)c1S(=O)(=O)c1ccc(Cl)cc1,1
7,Cc1cc(-n2ncc(=O)[nH]c2=O)ccc1[S+]([O-])c1ccc(Cl)cc1 (stereo not given),4
8,CC(C)(C)c1ccc(S(=O)(=O)c2ccc(-n3ncc(=O)[nH]c3=O)cc2)cc1,>250
9,Cc1cc(-n2ncc(=O)[nH]c2=O)cc(C)c1[S+]([O-])c1ccc(Cl)cc1 (stereo not given),1
10,O=c1cnn(-c2ccc(Sc3ccc([N+](=O)[O-])cc3)cc2)c(=O)[nH]1,30
11,O=c1cnn(-c2ccc(S(=O)(=O)Cc3ccccc3)cc2)c(=O)[nH]1,>125
12,Cc1cc(-n2ncc(=O)[nH]c2=O)cc(Cl)c1S(=O)(=O)c1ccc(Cl)cc1,15
13,O=c1cnn(-c2ccc(S(=O)(=O)c3ccccc3)cc2)c(=O)[nH]1,30
14,Cc1cc(-n2ncc(=O)[nH]c2=O)ccc1Sc1ccc(Cl)cc1,2
15,Cc1cc(-n2ncc(=O)[nH]c2=O)ccc1S(=O)(=O)c1ccc(Br)cc1,15
16,CC(C)(C)c1ccc(Sc2ccc(-n3ncc(=O)[nH]c3=O)cc2Cl)cc1,>60
17,O=c1cnn(-c2ccc(S(=O)(=O)Cc3ccc(Cl)cc3)cc2)c(=O)[nH]1,250
18,O=c1cnn(-c2ccc(Sc3ccc4ccccc4c3)c(Cl)c2)c(=O)[nH]1,125
19,Cc1cc(-n2ncc(=O)[nH]c2=O)cc(C)c1Sc1ccc(Cl)cc1 [TIAZURIL],0.5
